# The source made the active and inactive calls. The rule behind the calls is not given here.
# Columns and labels:
# MCF7 [1] = assay: Cell cycle arrest in human MCF7 cells assessed as >4N stage DNA at 1 uM for 20 hrs by PI staining/FACS analysis (Rvb =23.8 no unit); format: functional
# [2] = Cell cycle arrest in human PC3 cells assessed as >4N stage DNA at 1 uM for 20 hrs by PI staining/FACS analysis (Rvb =23 no unit); format: functional, cell-based; details: PC-3
# MCF7 [3] = assay: Cell cycle arrest in human MCF7 cells assessed as <2N stage DNA at 1 uM for 20 hrs by PI staining/FACS analysis (reference value: 0.39 no unit); format: functional
# [4] = Cell cycle arrest in human PC3 cells assessed as 2N stage DNA at 1 uM for 20 hrs by PI staining/FACS analysis (reference value: 42 no unit); format: functional, cell-based; details: PC-3
# HeLa [5] = assay: Mitotic arrest in human HeLa cells assessed as increase in accumulation at G2/M phase at 1 uM for 24 hrs by PI staining/FACS analysis; format: functional, cell-based
# HeLa [6] = assay: Cell cycle arrest in human HeLa cells assessed as >4N stage DNA at 1 uM for 20 hrs by PI staining/FACS analysis (reference value: 14.2 no unit); format: functional
# MCF7 [7] = assay: Cell cycle arrest in human MCF7 cells assessed as 4N stage DNA at 1 uM for 20 hrs by PI staining/FACS analysis (Rvb =40.8 no unit); format: functional
# [8] = Cell cycle arrest in human PC3 cells assessed as <2N stage DNA at 1 uM for 20 hrs by PI staining/FACS analysis (reference value: 0.59 no unit); format: functional, cell-based; details: PC-3
# MCF7 [9] = assay: Cell cycle arrest in human MCF7 cells assessed as 2N stage DNA at 1 uM for 20 hrs by PI staining/FACS analysis (reference value: 31.6 no unit); format: functional
# [10] = Cell cycle arrest in human PC3 cells assessed as 4N stage DNA at 1 uM for 20 hrs by PI staining/FACS analysis (Rvb =34.4 no unit); format: functional, cell-based; details: PC-3
# HeLa [11] = assay: Cell cycle arrest in human HeLa cells assessed as 4N stage DNA at 1 uM for 20 hrs by PI staining/FACS analysis (reference value: 24.8 no unit); format: functional
# HeLa [12] = assay: Cell cycle arrest in human HeLa cells assessed as <2N stage DNA at 1 uM for 20 hrs by PI staining/FACS analysis (reference value: 2.19 no unit); format: functional
# HeLa [13] = assay: Cell cycle arrest in human HeLa cells assessed as 2N stage DNA at 1 uM for 20 hrs by PI staining/FACS analysis (reference value: 58 no unit); format: functional
# BSC-1 [14] = assay: Inhibition of repolymerization of microtubule in cold treated African green monkey BSC1 cells at 5 uM for 20 hrs by DAPI staining; format: cell-based; details: Chlorocebus aethiops
# HeLa [15] = assay: Mitotic arrest in human HeLa cells assessed as increase in accumulation at G2/M phase at 5 uM for 24 hrs by PI staining/FACS analysis; format: functional, cell-based
# HeLa [16] = assay: Mitotic arrest in human HeLa cells assessed as accumulation of round cells with intense stained tubulin and DNA structures at 3 uM for 20 hrs by FITC/TRITC staining; format: functional, cell-based
# MCF7 [17] = assay: Cell cycle arrest in human MCF7 cells assessed as 4N stage DNA at 5 uM for 20 hrs by PI staining/FACS analysis (Rvb =40.8 no unit); format: functional
# HeLa [18] = assay: Mitotic arrest in human HeLa cells assessed as cells devoid of mitotic spindles at 3 uM for 20 hrs by FITC/TRITC staining; format: functional, cell-based
# [19] = Cell cycle arrest in human PC3 cells assessed as >4N stage DNA at 5 uM for 20 hrs by PI staining/FACS analysis (Rvb =23 no unit); format: functional, cell-based; details: PC-3
# HeLa [20] = assay: Mitotic arrest in human HeLa cells assessed as structure at 3 uM for 60 mins and measured after 20 hrs of washout by FITC staining; format: functional, cell-based
# MCF7 [21] = assay: Cell cycle arrest in human MCF7 cells assessed as 2N stage DNA at 5 uM for 20 hrs by PI staining/FACS analysis (reference value: 31.6 no unit); format: functional
# HeLa [22] = assay: Cell cycle arrest in human HeLa cells assessed as 2N stage DNA at 5 uM for 20 hrs by PI staining/FACS analysis (reference value: 58 no unit); format: functional
# HeLa [23] = assay: Cell cycle arrest in human HeLa cells assessed as <2N stage DNA at 5 uM for 20 hrs by PI staining/FACS analysis (reference value: 2.19 no unit); format: functional
# BSC-1 [24] = assay: Mitotic arrest in African green monkey BSC1 cells assessed as accumulation of round cells with intense stained tubulin and DNA structures at 3 uM for 20 hrs by FITC/TRITC staining; format: functional, cell-based; details: Chlorocebus aethiops
# MCF7 [25] = assay: Cell cycle arrest in human MCF7 cells assessed as >4N stage DNA at 5 uM for 20 hrs by PI staining/FACS analysis (Rvb =23.8 no unit); format: functional
# HeLa [26] = assay: Cytotoxicity against human HeLa cells assessed as inhibition of cell viability after 24 hrs by WST1 assay; format: functional, cell-based
# HeLa [27] = assay: Mitotic arrest in human HeLa cells assessed as structure at 3 uM for 60 mins and measured after 20 hrs of washout and applied 3 uM after washout by FITC staining; format: functional, cell-based
# HeLa [28] = assay: Mitotic arrest in human HeLa cells assessed as cells with condensed chromosomes not aligned to metaphase plate at 3 uM for 20 hrs by FITC/TRITC staining; format: functional, cell-based
# [29] = Cell cycle arrest in human PC3 cells assessed as 4N stage DNA at 5 uM for 20 hrs by PI staining/FACS analysis (Rvb =34.4 no unit); format: functional, cell-based; details: PC-3
# HeLa [30] = assay: Cell cycle arrest in human HeLa cells assessed as >4N stage DNA at 5 uM for 20 hrs by PI staining/FACS analysis (reference value: 14.2 no unit); format: functional
# Tubulin (Homo sapiens) [31] = biological target: T1, Tubulin (Homo sapiens) (UniProt P68371+Q9H4B7+P0DPH7+P68366+Q13509+Q71U36+P04350+Q3ZCM7+P07437+P68363+Q9BQE3+Q6PEY2+Q13885+Q9BVA1+Q9BUF5); assay: Displacement of colchicine from tubulin (unknown origin) by FITC staining; format: protein-complex assay
# Tubulin = assay: (§1) Displacement of BODIPY-FL-vinblastine from tubulin (unknown origin); format: protein-complex assay, Homo sapiens
# Tubulin (Homo sapiens) [32] = biological target: T1, Tubulin (Homo sapiens); assay: as §1; format: protein-complex assay
# MCF7 [33] = assay: Cell cycle arrest in human MCF7 cells assessed as <2N stage DNA at 5 uM for 20 hrs by PI staining/FACS analysis (reference value: 0.39 no unit); format: functional
# HeLa [34] = assay: Cell cycle arrest in human HeLa cells assessed as 4N stage DNA at 5 uM for 20 hrs by PI staining/FACS analysis (reference value: 24.8 no unit); format: functional
# Tubulin (Sus scrofa) = Tubulin (Sus scrofa) (UniProt P02554+P02550); assay: Inhibition of porcine brain tubulin polymerization at 50 uM by turbidity assay
# Sequence of Tubulin (Sus scrofa) (P02550 whole entry, looked up): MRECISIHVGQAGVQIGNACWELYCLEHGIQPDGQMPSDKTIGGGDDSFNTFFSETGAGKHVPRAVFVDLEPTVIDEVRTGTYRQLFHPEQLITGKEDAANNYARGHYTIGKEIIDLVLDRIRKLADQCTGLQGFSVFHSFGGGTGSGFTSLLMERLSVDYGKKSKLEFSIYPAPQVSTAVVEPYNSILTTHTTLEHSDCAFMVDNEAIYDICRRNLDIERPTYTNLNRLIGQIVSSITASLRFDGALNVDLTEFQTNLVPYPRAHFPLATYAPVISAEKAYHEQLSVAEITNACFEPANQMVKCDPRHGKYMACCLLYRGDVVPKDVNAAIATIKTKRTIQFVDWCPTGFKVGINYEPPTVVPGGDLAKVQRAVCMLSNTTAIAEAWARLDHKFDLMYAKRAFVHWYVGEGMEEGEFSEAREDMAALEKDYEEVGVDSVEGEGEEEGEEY
# Sequence of Tubulin (Sus scrofa) (P02554 whole entry, looked up): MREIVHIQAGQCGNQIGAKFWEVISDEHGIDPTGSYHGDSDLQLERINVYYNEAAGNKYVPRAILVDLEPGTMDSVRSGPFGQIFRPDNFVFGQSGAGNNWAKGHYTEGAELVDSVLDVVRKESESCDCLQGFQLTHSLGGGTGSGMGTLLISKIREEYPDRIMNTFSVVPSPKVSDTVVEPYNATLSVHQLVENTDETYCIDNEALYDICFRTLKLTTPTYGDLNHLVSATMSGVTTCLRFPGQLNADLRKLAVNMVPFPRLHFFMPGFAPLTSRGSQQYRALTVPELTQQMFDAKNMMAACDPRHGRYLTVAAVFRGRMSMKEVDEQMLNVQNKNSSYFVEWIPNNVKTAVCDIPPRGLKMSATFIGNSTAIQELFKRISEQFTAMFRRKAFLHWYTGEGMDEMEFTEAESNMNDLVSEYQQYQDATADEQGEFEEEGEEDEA
# [35] = Cell cycle arrest in human PC3 cells assessed as 2N stage DNA at 5 uM for 20 hrs by PI staining/FACS analysis (reference value: 42 no unit); format: functional, cell-based; details: PC-3
# [36] = Cell cycle arrest in human PC3 cells assessed as <2N stage DNA at 5 uM for 20 hrs by PI staining/FACS analysis (reference value: 0.59 no unit); format: functional, cell-based; details: PC-3
smiles,measurement,setting,value
COC(=O)Nc1nc2cc(C(=O)c3cccs3)ccc2[nH]1 [NOCODAZOLE],Flu intensity,MCF7 [1],30.7
same,Flu intensity,[2],29.4
same,Flu intensity,MCF7 [3],0.72
same,Flu intensity,[4],7.64
same,Activity,HeLa [5],Active
same,Flu intensity,HeLa [6],16.9
same,Flu intensity,MCF7 [7],57.5
same,Flu intensity,[8],10.7
same,Flu intensity,MCF7 [9],9.16
same,Flu intensity,[10],51.7
same,Flu intensity,HeLa [11],64.7
same,Flu intensity,HeLa [12],9.75
same,Flu intensity,HeLa [13],8.61
COc1c(-c2ccc(O)c(O)c2CC=C(C)C)oc2cc(O)cc(O)c2c1=O,Flu intensity,MCF7 [1],29.6
same,inhibition,BSC-1 [14],Active
same,Activity,HeLa [15],Active
same,Flu intensity,[2],26.5
same,Activity,HeLa [16],Active
same,Flu intensity,MCF7 [17],61.5
same,Flu intensity,MCF7 [3],1.07
same,Activity,HeLa [18],Active
same,Flu intensity,[19],30.8
same,Activity,HeLa [20],inactive
same,Flu intensity,[4],27.6
same,Flu intensity,MCF7 [21],9.57
same,Flu intensity,HeLa [22],9.6
same,Flu intensity,HeLa [23],9.84
same,Activity,BSC-1 [24],Active
same,Flu intensity,MCF7 [25],27
same,IC50,HeLa [26],0.79 µM
same,inhibition,HeLa [26],Dose-dependent effect
same,Flu intensity,HeLa [6],13.8
same,Flu intensity,MCF7 [7],36.3
same,Activity,HeLa [27],Active
same,Activity,HeLa [28],Active
same,Flu intensity,[29],47.5
same,Flu intensity,HeLa [30],21.8
same,Flu intensity,[8],2.23
same,Activity,Tubulin (Homo sapiens) [31],inactive
same,EC50,Tubulin,14.7 µM
same,inhibition,Tubulin (Homo sapiens) [32],Dose-dependent effect
same,Flu intensity,MCF7 [33],2
same,Flu intensity,HeLa [34],58.2
same,inhibition,Tubulin (Sus scrofa),Active
same,Flu intensity,MCF7 [9],32
same,Flu intensity,[10],42
same,Flu intensity,HeLa [11],40.2
same,Flu intensity,[35],9.24
same,Flu intensity,[36],12.6
same,Flu intensity,HeLa [12],5.6
same,Flu intensity,HeLa [13],40.4

# — ChEMBL document CHEMBL3352305, “Podoverine A--a novel microtubule destabilizing natural product from the Podophyllum species” (Bioorg Med Chem, 2014)
